Drawing on PubChem BioAssay (NCI), this text covers TGI and GI50 for 11 molecules.

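Assay format: 96-well plates, 48-hour exposure. Here, GI50 denotes the concentration required for 50% inhibition of growth. TGI denotes the concentration required for complete inhibition of growth.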

Some test systems named below: KM12 colon; MOLT-4 leukemia; SK-OV-3 ovarian; SK-MEL-2 melanoma; NCI-H522 lung; SNB-75 CNS; LOX IMVI melanoma; OVCAR-8 ovarian; SN12C renal; NCI-H23 lung.
Common to all, as to experiment: NCI-60 cell line screen, 48 h

As for `CC(=O)OC(Cn1cncn1)(Cn1cncn1)c1ccc(Cl)cc1Cl`, the TGI in the test on KM12 colon, in the test on MOLT-4 leukemia, with SK-OV-3 ovarian, in the test on SK-MEL-2 melanoma, in the test with NCI-H522 lung and with SNB-75 CNS was greater than 100 µM in each case. Moreover, the TGI in the test with LOX IMVI melanoma and in the test with OVCAR-8 ovarian was greater than 100 µM in each case.

As for `Cc1nc(C(N)=S)sc1C(=O)/C=C/c1c(O)ccc2ccccc12`, the TGI in the test with KM12 colon is greater than 93.1 µM; with MOLT-4 leukemia it was greater than 69 µM; in the test with SK-OV-3 ovarian it was greater than 100 µM; in the test with SN12C renal it was greater than 100 µM; with SK-MEL-2 melanoma, greater than 100 µM; with NCI-H522 lung, greater than 63 µM. In addition, the TGI with NCI-H23 lung was greater than 100 µM; in the test on SNB-75 CNS it was greater than 100 µM; in the test with LOX IMVI melanoma it was 73.6 µM; in the test with OVCAR-8 ovarian, greater than 100 µM.

With `COC(=O)C1(C)Cc2cc(OC(C)=O)c(OC(C)=O)cc2N1` (configuration not stated), the GI50 is 20.2 µM with KM12 colon; 8.18 µM in the test on MOLT-4 leukemia; greater than 87.4 µM with SK-OV-3 ovarian; 17 µM in the test on SN12C renal; 5.92 µM in the test with SK-MEL-2 melanoma; 0.633 µM in the test on NCI-H522 lung. Also, the GI50 is 18.2 µM in the test with NCI-H23 lung, 26.3 µM with SNB-75 CNS, 5.06 µM in the test with LOX IMVI melanoma and 14.4 µM in the test with OVCAR-8 ovarian. Further, the TGI in the test on KM12 colon is 51.6 µM; in the test with MOLT-4 leukemia it was greater than 60.2 µM; in the test with SK-OV-3 ovarian, greater than 100 µM; with SN12C renal, greater than 81.8 µM; with SK-MEL-2 melanoma, 17.9 µM; in the test with NCI-H522 lung it was 1.8 µM. Moreover, the TGI in the test with NCI-H23 lung is 62.5 µM; in the test on SNB-75 CNS, greater than 96.7 µM; with LOX IMVI melanoma it was 19.7 µM; in the test with OVCAR-8 ovarian, 70.2 µM.

`CN(C)C(=O)O[C@H]1CN[C@H](C#Cc2cc3ncnc(Nc4ccc(OCc5cccc(F)c5)c(Cl)c4)c3s2)C1`: the GI50 in the test with KM12 colon was 7.37 µM; in the test with MOLT-4 leukemia, 4.53 µM; in the test on SK-OV-3 ovarian, 0.102 µM; in the test with SN12C renal, 5.64 µM; in the test on SK-MEL-2 melanoma, greater than 25 µM; in the test on NCI-H522 lung it was 0.977 µM. For the same molecule, the GI50 was greater than 25 µM in the test on NCI-H23 lung, 9.66 µM in the test on SNB-75 CNS, greater than 23.2 µM in the test with LOX IMVI melanoma and 7.58 µM in the test with OVCAR-8 ovarian. For the same molecule, the TGI in the test with KM12 colon was greater than 25 µM; in the test with MOLT-4 leukemia, greater than 25 µM; in the test with SK-OV-3 ovarian it was greater than 25 µM; with SN12C renal, greater than 25 µM; in the test on SK-MEL-2 melanoma it was greater than 25 µM; with NCI-H522 lung it was greater than 12.7 µM. Further, the TGI in the test on NCI-H23 lung, in the test with SNB-75 CNS, in the test on LOX IMVI melanoma and in the test on OVCAR-8 ovarian was greater than 25 µM each time.

Turning to `COc1ccc(C(=O)NCCN(C)C)c2nc3ccccc3nc12`, the TGI with KM12 colon is 32.4 µM; in the test on MOLT-4 leukemia it was 7.3 µM; in the test with SK-OV-3 ovarian it was greater than 63.2 µM; with SN12C renal, 80.1 µM; with SK-MEL-2 melanoma, 11.8 µM; with NCI-H522 lung, greater than 100 µM. The TGI is 17.9 µM in the test with NCI-H23 lung, 78 µM in the test on SNB-75 CNS, 6.48 µM in the test with LOX IMVI melanoma and greater than 41.5 µM in the test on OVCAR-8 ovarian.

With `c1ccc(N2N=C(c3ccco3)CC2c2ccco2)cc1` (configuration not stated), the TGI is greater than 100 µM with KM12 colon; 52.4 µM in the test on MOLT-4 leukemia; greater than 100 µM in the test on SN12C renal; greater than 100 µM in the test with SK-MEL-2 melanoma; greater than 100 µM with NCI-H522 lung; greater than 100 µM in the test on NCI-H23 lung. In addition, the TGI in the test with SNB-75 CNS, in the test with LOX IMVI melanoma and with OVCAR-8 ovarian was greater than 100 µM each time.

Turning to `COc1ccc(CN2CCC/C=C/CC(Cl)(Cl)C2=O)cc1`, the TGI in the test with KM12 colon was greater than 100 µM; with MOLT-4 leukemia, 68 µM; with SK-OV-3 ovarian, greater than 100 µM; with SN12C renal it was greater than 100 µM; in the test on SK-MEL-2 melanoma, 44.8 µM; in the test on NCI-H522 lung, 59.4 µM. For the same molecule, the TGI in the test with NCI-H23 lung was 99.5 µM; with SNB-75 CNS it was 64.8 µM; in the test on LOX IMVI melanoma, greater than 100 µM; with OVCAR-8 ovarian, greater than 100 µM.

Turning to `C[N+](C)(C)CC1CCCCC1O` (configuration not stated), the TGI with MOLT-4 leukemia, with SK-OV-3 ovarian, in the test with SN12C renal, in the test on SK-MEL-2 melanoma, in the test with NCI-H522 lung and in the test on NCI-H23 lung was greater than 100 µM in each case. Besides, the TGI with SNB-75 CNS, with LOX IMVI melanoma and in the test with OVCAR-8 ovarian was greater than 100 µM throughout.

On to `Cc1ccc(-c2nc3nc(-c4ccc(F)cc4)nc(N4CCCNCC4)c3o2)cc1`, for which the GI50 was 1.79 µM with KM12 colon; 1.62 µM in the test on MOLT-4 leukemia; 1.87 µM in the test with SK-OV-3 ovarian; 1.67 µM in the test on SN12C renal; 1.73 µM with SK-MEL-2 melanoma; 1.65 µM in the test with NCI-H522 lung. In addition, the GI50 is 1.82 µM in the test with NCI-H23 lung, 1.06 µM in the test with SNB-75 CNS and 1.18 µM in the test with LOX IMVI melanoma. In addition, the TGI in the test with KM12 colon amounted to 3.42 µM; in the test on MOLT-4 leukemia, 3.47 µM; with SK-OV-3 ovarian, 3.37 µM; in the test on SN12C renal, 3.13 µM; in the test with SK-MEL-2 melanoma it was 3.35 µM; with NCI-H522 lung, 3.51 µM. Also, the TGI was determined as 3.47 µM in the test with NCI-H23 lung, 2.24 µM with SNB-75 CNS and 2.55 µM in the test on LOX IMVI melanoma.

Regarding `N/N=C1\C(=O)N(CCc2ccccc2)C(=O)C1C(=O)NCCc1ccccc1` (configuration not stated), the TGI with KM12 colon, with MOLT-4 leukemia, with SK-OV-3 ovarian, in the test with SN12C renal, in the test on SK-MEL-2 melanoma and in the test on NCI-H522 lung was greater than 100 µM each time. The TGI with NCI-H23 lung, in the test on SNB-75 CNS and in the test on LOX IMVI melanoma was greater than 100 µM in each case.

In the case of `O=C(O)c1ccc(C2C(=O)N[C@@H]3CCC[C@H]23)cc1` (some centres not stated), the TGI in the test with KM12 colon, in the test on MOLT-4 leukemia, in the test on SK-OV-3 ovarian, with SK-MEL-2 melanoma, in the test on NCI-H522 lung and in the test with NCI-H23 lung was greater than 100 µM in each case. Further, the TGI in the test with SNB-75 CNS, with LOX IMVI melanoma and with OVCAR-8 ovarian was greater than 100 µM each time.
